Data taken from PubChem BioAssay AID449762 (Southern Research Specialized Biocontainment Screening …, 2010).
Records with an inconclusive call do not appear.

Test system: M. tuberculosis H37Rv growth inhibition, 7H9 media
Test: M. tuberculosis growth inhibition, HTS (AID 449762);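 further: bacterial growth assessed after seven days of incubation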
Details: for IC90: measured here: IC90 growth inhibition

SMILES	IC50 [µM]	IC90 [µM]
COc1ccc(OCCCC(=O)OC(C)C(=O)Nc2ccccc2[N+](=O)[O-])cc1 (stereo not given)	15.4	> 100
CCCCOc1ccc(-c2nnn(C(C)C(=O)OCC)n2)cc1 (stereo not given)	0.75	5.42
Cc1cc(C)n(-c2nc(Nc3ccccc3C(F)(F)F)nc(-n3nc(C)cc3C)n2)n1	0.65	1.56
O=C(N/N=C/c1cn(-c2ccccc2)nc1-c1cccs1)c1ccc(Cl)cc1		> 100
CCOC(=O)C1CCCN(c2ncnc3c2cnn3-c2ccc(OC)cc2)C1 (stereo not given)	2.3	10.7
Cc1occc1-c1nnc(SCC(=O)NCCc2ccccc2)o1	9.83	20
c1ccc(C[C@H]2CN=C(Nc3ccccc3)N2CCCC2CCCC2)cc1	31.4	48.5
CC(C)Oc1ccc(-c2nc(NCC3CCCO3)c3ccccc3n2)cc1 (stereo not given)	68	91.3
COc1ccc(N(CC(=O)Nc2ccccc2C(N)=O)S(=O)(=O)c2ccc(C)c([N+](=O)[O-])c2)cc1	87.7	> 100
Cc1ccc(Nc2nc(N)c([N+](=O)[O-])c(N3CCCC(C)C3)n2)cc1C (stereo not given)	99.9	> 100
COc1cccc(NC(=O)CNC(=O)Cn2cnc3sc4c(c3c2=O)CCCC4)c1	36.6	> 100
C#CCOc1ccc2c(c1)c(C(C)=O)c(C)n2Cc1ccccc1	68.4	> 100
Clc1ccc(C(Cn2ccnc2)OCc2csc3c(Cl)cccc23)c(Cl)c1 (stereo not given)	15.8	24.8
CC(C)c1nc2scc(-c3ccc(Cl)cc3)c2c(=O)n1N	81.8	> 100
O=C(NCc1ccccn1)C(=O)Nc1nc(C23CC4CC(CC(C4)C2)C3)cs1	1.75	5.26
CSc1nsc(SCC(=O)N2CCCCC2)n1	5.47	8.81
Cn1c(NCC(O)c2ccccc2)nc2c1c(=O)n(Cc1ccc(Cl)c(Cl)c1)c(=O)n2C (stereo not given)	7.51	18.1
COc1ccc2[nH]c3c(C)c4ccncc4c(C)c3c2c1	0.89	2.68
COc1ccc(CN2CCN(C(c3ccc(F)cc3)c3ccc(F)cc3)CC2)c(OC)c1OC	23.3	26.3
Cc1cc(C)c2c(CN3CCN(Cc4ccccc4)CC3)cc(=O)oc2c1C	49.1	54.6
CN(C)c1ccc(N=Nc2ccccc2C(=O)OCC(=O)NCC2CCCCC2)cc1	11	13.1
CCCSC1=C(C#N)C(c2ccc(Cl)cc2Cl)CC(=O)N1 (stereo not given)		> 25

SMILES	IC50 [µM]	IC90 [µM]
Cc1ccc(NC(=O)c2ccc(CSc3nnc(C)s3)cc2)c(C)c1	17.4	> 25
COc1cc(NC(=O)C/C(C)=N/NC(=O)c2ccccn2)c(OC)cc1Cl	3	4.13
O=c1[nH]c2ccccc2c2oc(CCl)nc12	1.14	19.2
CCc1cccc2c(C(=O)CCl)c[nH]c12	0.78	3.18
CCn1c(C)c(C)c2cc(C(=O)Nc3cccc(Cl)c3)ccc21	35	> 100
CCCCNc1c(-c2ccc(SC3CCCCC3)c(OC)c2)nc2ccc(C)cn12	11.4	12.8
Clc1cccc(-c2cc3nc4c(c(NCc5ccco5)n3n2)CCCC4)c1	11	17.4
Cc1cc(C)c2ccc(NN)nc2c1O	3.6	4.95
CCCc1cc(NC(=O)CCl)n(-c2ccccc2)n1	0.7	2.29
Cc1cc(C)c(C)c(N=Nc2nc3ccccc3n2C)c1C	6.16	6.93
O=C(Nc1ccc(Cl)cc1)N1CCN(c2ccc3nnc(-c4ccc(F)cc4)n3n2)CC1	13.8	26.4
Cc1nn2c(NCc3ccccn3)cc(C(C)C)nc2c1-c1ccccc1	2.34	3.29
O=c1c(C=NCCN2CCNCC2)c(O)n(C2CCCCC2)c(=O)n1C1CCCCC1	21	28.5
CNC[C@H](Cc1cccc2ccccc12)NC[C@H](CCSC)NCC1CCC(C(C)(C)C)CC1 (stereo not given in full)	22.4	24.2
COc1ccccc1N1C(=O)NC(=O)/C(=C/c2ccc([N+](=O)[O-])s2)C1=O		> 100
Clc1ccc(NNc2ccnc3cc(Cl)ccc23)cc1	16.8	21.5
Cc1cccc(NC(=O)c2nc[nH]c2C(=O)N[C@H](C)c2ccccc2)c1	3.63	> 100
CCOc1ccc(-c2[nH]ncc2-c2ccc(Cl)cc2)c(O)c1	46.8	66.5
Cn1c2ccccc2c2cc(C(=O)NNC(=O)CCl)sc21	1.72	3.91
Cc1nc(S/C(=C/c2ccc(-c3ccc(Cl)cc3)o2)C(=O)O)n[nH]1	18.4	> 100
CCOC(=O)c1ccc(N=Cc2c(O)c3ccccc3oc2=O)cc1	66	> 100
O=C(/C=C\c1cccs1)N1CCN(Cc2ccc3c(c2)OCO3)CC1	1.48	5.53
